Positions of bridges follow the written chain, without caps; N, C: chain ends. Residues, ends and D or L forms follow the SMILES beside them.
Tests used:
HA-OGR1 (GPR68) = target: T1, HA-OGR1 (GPR68) (Homo sapiens, UniProt Q15743); experiment: Ca2+ mobilization assay (Fluo-4); format: cell-based; conditions: GPR68, data from resynthesized peptide, mean, SEM and n; for Emax: read-out: Emax, Ca2+ mobilization (% iono); for EC50: read-out: pEC50, Ca2+ mobilization (% iono) (converted)
T1 construct: HA; expressed in transfected cells
T1 sequence (Q15743 whole entry): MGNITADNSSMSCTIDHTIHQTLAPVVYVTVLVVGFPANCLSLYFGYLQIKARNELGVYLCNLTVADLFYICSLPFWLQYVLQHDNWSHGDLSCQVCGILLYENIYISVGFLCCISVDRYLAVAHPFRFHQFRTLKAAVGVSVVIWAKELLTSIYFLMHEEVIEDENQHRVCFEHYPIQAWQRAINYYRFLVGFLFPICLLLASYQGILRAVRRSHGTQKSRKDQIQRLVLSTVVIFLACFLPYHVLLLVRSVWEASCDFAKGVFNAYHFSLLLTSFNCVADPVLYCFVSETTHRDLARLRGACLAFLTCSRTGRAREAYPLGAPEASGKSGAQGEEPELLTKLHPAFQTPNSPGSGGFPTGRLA
Description: Peptide-dependent Ca^2+ mobilization responses were measured in HEK293 stable cell lines (HA-OGR1 (GPR68) and vector pcDNA) ([Saxena et al., 2012]) that were seeded in 96-well plates (1 × 10^5 cells/well) and cultured at 37°C with 5% CO2 to near confluence in DMEM with 10% FBS (Corning). Six hours prior to assay, medium was changed to pH 8.0 or pH 7.4 HAM’s F12 Nutrient Mixture (GIBCO) without FBS and transferred to a 37°C incubator without CO2. One hour prior to stimulation, cells were incubated in pH 8.0 or pH 7.4 HBSS with Ca^2+ and Mg^2+ (GIBCO), supplemented with 15 mM HEPES, 2 μM Fluo-4 AM (Invitrogen) and 1.5 mM probenecid ([…] to prevent Fluo-4 efflux) as described previously ([Pera et al., 2018]). Indicated peptides were pipetted using an automated system and emission signal was recorded at 525 nm after excitation at 485 nm using Flex Station III (Molecular Devices). Ca^2+ mobilization responses were determined by subtracting basal fluorescence from the net peak of agonist-induced fluorescence. Ionomycin (1 μM) was used to calculate the maximum Ca^2+ signal to normalize peptide-mediated responses.

GPR68 = GPR68 (Homo sapiens, UniProt Q15743); experiment: Real-time receptor internalization (TR-FRET), concentration-response; format: cell-based; design: hIL-2Ra signal peptide (N); expressed in transfected cells; conditions: GPR68, mean, SEM and n
Chain of GPR68 (Q15743 2-365 limits assumed): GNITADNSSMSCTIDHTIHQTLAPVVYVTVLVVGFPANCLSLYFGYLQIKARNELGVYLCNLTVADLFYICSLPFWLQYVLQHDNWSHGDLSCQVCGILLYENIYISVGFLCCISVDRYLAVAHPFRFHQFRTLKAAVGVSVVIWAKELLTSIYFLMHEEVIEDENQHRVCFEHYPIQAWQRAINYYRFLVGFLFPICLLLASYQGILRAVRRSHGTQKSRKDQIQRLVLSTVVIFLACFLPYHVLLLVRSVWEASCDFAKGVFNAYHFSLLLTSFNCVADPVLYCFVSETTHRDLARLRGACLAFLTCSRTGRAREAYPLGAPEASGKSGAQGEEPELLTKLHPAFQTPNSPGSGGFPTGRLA
Summary of the method: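 Doxycycline-induced SNAP-tagged receptor cells had surface receptors labelled with Lumi4-Tb and fluorescein-O-acetic acid added. TR-FRET internalization after peptide addition was recorded for 60 min at 37°C (ex 340, em 520/615 nm). Area under the curve, normalized to plate average, gave concentration-response curves.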

**Q.** How did the Emax (HA-OGR1 (GPR68)) turn out when `CC[C@H](C)[C@H](NC(=O)[C@H](CCCNC(=N)N)NC(=O)[C@H](C)NC(=O)CNC(=O)[C@H](CCCCN)NC(=O)[C@H](CCCNC(=N)N)NC(=O)[C@@H](NC(=O)[C@H](C)NC(=O)[C@@H]1CSSC[C@H](NC(=O)[C@H](CCSC)NC(=O)[C@@H]2CCCN2C(=O)[C@@H](NC(=O)[C@H](CCC(N)=O)NC(=O)CNC(=O)[C@@H](N)Cc2ccc(O)cc2)C(C)C)C(=O)N[C@@H](CC(=O)O)C(=O)N[C@@H](C)C(=O)NCC(=O)N[C@@H](CCC(=O)O)C(=O)N[C@@H](CCC(N)=O)C(=O)N1)C(C)C)C(N)=O` [CART(42-89)_(9-28)] (H-YGQVPMCDAGEQCAVRKGARI-NH2; disulfide 7-13; N-terminus assumed) was run?
**A.** Its Emax is 79.3%.

**Q.** And the EC50 (HA-OGR1 (GPR68))?
**A.** The EC50 was 3.31 µM.

**Q.** And the “Emax, Internalization (AUC)” value (GPR68)?
**A.** Its value is 9.4.

**Q.** And the EC50 (GPR68; read-out: pEC50, Internalization (AUC) (converted))?
**A.** The EC50 was 3.55 µM.

**Q.** What does the source list for `CC(C)C[C@H](NC(=O)[C@@H]1CCCN1C(=O)[C@H](Cc1ccccc1)NC(=O)[C@H](C)NC(=O)[C@H](CCC(=O)O)NC(=O)[C@H](C)NC(=O)[C@H](CO)NC(=O)[C@H](CCC(=O)O)NC(=O)[C@H](CC(N)=O)NC(=O)[C@H](CCC(=O)O)NC(=O)[C@H](C)NC(=O)[C@@H](NC(=O)[C@H](CC(N)=O)NC(=O)[C@@H]1CCCN1C(=O)[C@H](Cc1ccc(O)cc1)NC(=O)[C@@H](NC(=O)[C@H](CCCCN)NC(=O)[C@@H](NC(=O)[C@@H]1CCCN1C(=O)[C@H](CCCNC(=N)N)NC(=O)[C@@H](N)CCCNC(=N)N)C(C)C)C(C)C)C(C)C)C(=O)N[C@@H](CCC(=O)O)C(=O)N[C@@H](Cc1ccccc1)C(=O)O` [Corticotropin_(17-40)] (H-RRPVKVYPNVAENESAEAFPLEF-OH; N-terminus and C-terminus assumed)?
**A.** Emax (HA-OGR1 (GPR68)): 63.3%; EC50 (HA-OGR1 (GPR68)): 1.82 µM; Emax, Internalization (AUC) (GPR68): 4.7; pEC50, Internalization (AUC) (GPR68): Response >1uM
